In patent US5013549A, “Production, isolation, and identification of novel antifungal compounds” (priority 1990, dated 1991):
Converted amounts (≈) assume the structure as drawn. “Also recorded” adds a separate entry of the source. Where two headings read alike, the source gives them in different places.

Assays:
murine tumors = conditions: more active than adriamycin; cited from earlier work
fungi = conditions: known related compounds; cited from earlier work
[1] = cited from earlier work
[2] = system: Staphylococcus aureus ATCC 29213; assay: Minimum inhibitory concentration, Staphylococcus aureus ATCC 29213; format: cell-based; conditions: bacterial strain ATCC 29213
Description: (§1) Known amounts of the purified substance were dissolved in DMSO and serial dilutions prepared in the same solvent. A 20 ul volume of each dilution was placed on the surface of Emmon's agar in petri-dishes seeded with various test strains of pathogenic and saprophytic fungi. The antibacterial activity was monitored using Muller-Hilton agar. The minimum inhibitory concentration (MIC) was determined by incorporating known amount of the DMSO dissolved purified substance into Emmon's liquid medium (same as stated earlier but devoid of agar) contained in test tubes. The tubes were inoculated with ca 2×10^3 CFU of the test organisms. The inoculated tubes were incubated at 26° C. and the results recorded after two to 5 days depending upon the growth pattern of the test organisms (certain fungi grow faster than others). Tubes inoculated in an identical manner but devoid of the active substance served as controls.

Escherichia coli = assay: Minimum inhibitory concentration, Escherichia coli; format: cell-based; conditions: bacterial strain
Description: as §1

Aspergillus fumigatus = assay: Minimum inhibitory concentration, Aspergillus fumigatus; format: cell-based
Description: as §1

Stability in 2N HCl = format: physicochemical
Citrobacter species = assay: Minimum inhibitory concentration, Citrobacter species; format: cell-based; conditions: bacterial strain
Description: as §1

C. neoformans- G-3 = assay: Minimum inhibitory concentration, C. neoformans- G-3; format: cell-based; conditions: Cryptococcus neoformans
Description: as §1

A. niger = assay: Minimum inhibitory concentration, A. niger; format: cell-based; conditions: Aspergillus niger; 26° C., 2 to 5 days, Emmon's liquid medium; fungus
Description: as §1

Pseudomonas aeruginosa = assay: Minimum inhibitory concentration, Pseudomonas aeruginosa; format: cell-based; conditions: bacterial strain
Description: as §1

Penicillium species = assay: Minimum inhibitory concentration, Penicillium species; format: cell-based; conditions: 26° C., 2 to 5 days, Emmon's liquid medium, fungus
Description: as §1

Rhodotorula rubra = assay: Minimum inhibitory concentration, Rhodotorula rubra; format: cell-based
Description: as §1

Candida albicans = assay: Minimum inhibitory concentration, Candida albicans; format: cell-based; conditions: 26° C., 2 to 5 days, Emmon's liquid medium, fungus
Description: as §1

A. flavus = assay: Minimum inhibitory concentration, A. flavus; format: cell-based; conditions: Aspergillus flavus; 26° C., 2 to 5 days, Emmon's liquid medium; fungus
Description: as §1

C.neoformans serotype-D = assay: Minimum inhibitory concentration, C.neoformans serotype-D; format: cell-based; conditions: Cryptococcus neoformans, 26° C., 2 to 5 days
Description: as §1

C. quilliermondii = assay: Minimum inhibitory concentration, C. quilliermondii; format: cell-based
Description: as §1

C. neoformans- N-3 = assay: Minimum inhibitory concentration, C. neoformans- N-3; format: cell-based; conditions: Cryptococcus neoformans; N = encapsulated, mucoid strain with neurotropic tendencies; 26° C., 2 to 5 days
Description: as §1

C. neoformans serotype-C = assay: Minimum inhibitory concentration, C. neoformans serotype-C; format: cell-based; conditions: Cryptococcus neoformans
Description: as §1

R. glutinis = assay: Minimum inhibitory concentration, R. glutinis; format: cell-based; conditions: Rhodotorula glutinis
Description: as §1

[3] = system: Cryptococcus neoformans-N-2; assay: Minimum inhibitory concentration, Cryptococcus neoformans-N-2; format: cell-based; conditions: N = encapsulated, mucoid strain with neurotropic tendencies, 26° C., 2 to 5 days
Description: as §1

S. aureus ATCC 25923 = assay: Minimum inhibitory concentration, S. aureus ATCC 25923; format: cell-based, Staphylococcus aureus; conditions: bacterial strain ATCC 25923
Description: as §1

Cladosporium species = assay: Minimum inhibitory concentration, Cladosporium species; format: cell-based; conditions: 26° C., 2 to 5 days, Emmon's liquid medium, fungus
Description: as §1

Solubility = format: physicochemical
[4] = system: S. aureus (multiple drug resistant); assay: Minimum inhibitory concentration, S. aureus (multiple drug resistant); format: cell-based, Staphylococcus aureus; conditions: bacterial strain
Description: as §1

Plebsiella pneumoniae = assay: Minimum inhibitory concentration, Plebsiella pneumoniae; format: cell-based
Description: as §1

CCN[C@H]1CO[C@@H](O[C@H]2[C@H](O[C@H]3C#C/C=C\C#C[C@]4(O)CC(=O)C(NC(=O)OC)=C3/C4=C\CSSSC)O[C@H](C)[C@@H](NO[C@H]3C[C@H](O)[C@H](SC(=O)c4c(C)c(I)c(O[C@@H]5O[C@@H](C)[C@H](O)[C@@H](OC)[C@H]5O)c(OC)c4OC)[C@@H](C)O3)[C@@H]2O)C[C@@H]1OC [Calicheamicin]
activity relative to adriamycin against murine tumors (murine tumors): approximately 1000 -fold

CCC1(O)CC(OC2CC(N(C)C)C(OC3CC(O)C(OC4CCC(=O)C(C)O4)C(C)O3)C(C)O2)c2c(cc3c(c2O)C(=O)c2c(O)ccc(O)c2C3=O)C1C(=O)OC (stereo not drawn) [cinerubin A]
antifungal properties (fungi): not significantly antifungal
solubility of known cinerubins ([1]; in ethanol): soluble
solubility of known cinerubins ([1]; in methanol): soluble

CC[C@@]1(O)C[C@H](O[C@H]2C[C@H](N(C)C)[C@H](O[C@H]3C[C@@H]4O[C@H]5CC(=O)[C@H](C)O[C@H]5O[C@@H]4[C@H](C)O3)[C@H](C)O2)c2c(cc3c(c2O)C(=O)c2c(O)ccc(O)c2C3=O)[C@H]1C(=O)OC [cinerubin B]
antifungal properties (fungi): not significantly antifungal
solubility of known cinerubins ([1]; in ethanol): soluble
solubility of known cinerubins ([1]; in methanol): soluble

CCC1(O)CC(OC2CC(N(C)C)C(OC3CC(O)C(OC4CCC(=O)C(C)O4)C(C)O3)C(C)O2)c2c(cc3c(c2O)C(=O)c2c(O)ccc(O)c2C3=O)C1C(=O)OC (stereo not drawn) [spartanamicin B]
MIC [2]: 0.8 µg/mL (≈ 0.966 µM)
MIC (Escherichia coli): not active
MIC (Aspergillus fumigatus): 0.4 µg/mL (≈ 0.483 µM)
stability upon standing in 2N HCl (Stability in 2N HCl): hydrolyses
MIC (Citrobacter species): not active
MIC (C. neoformans- G-3): 1 µg/mL (≈ 1.21 µM)
MIC (A. niger): 0.6 µg/mL (≈ 0.725 µM)
MIC (Pseudomonas aeruginosa): 100 µg/mL (≈ 121 µM)
MIC (Penicillium species): 0.2 µg/mL (≈ 0.242 µM)
MIC (Rhodotorula rubra): 0.8 µg/mL (≈ 0.966 µM)
MIC (Candida albicans): 0.2 µg/mL (≈ 0.242 µM)
MIC (A. flavus): 0.6 µg/mL (≈ 0.725 µM)
MIC (C.neoformans serotype-D): 0.8 µg/mL (≈ 0.966 µM)
MIC (C. quilliermondii): 0.8 µg/mL (≈ 0.966 µM)
MIC (C. neoformans- N-3): 0.6 µg/mL (≈ 0.725 µM)
MIC (C. neoformans serotype-C): 0.8 µg/mL (≈ 0.966 µM)
MIC (R. glutinis): 0.4 µg/mL (≈ 0.483 µM)
MIC [3]: 0.8 µg/mL (≈ 0.966 µM)
MIC (S. aureus ATCC 25923): 0.8 µg/mL (≈ 0.966 µM)
MIC (Cladosporium species): 0.4 µg/mL (≈ 0.483 µM)
Solubility (Solubility; in 1-butanol): Sparingly soluble
Solubility (Solubility; in 2N HCl): Insoluble
Solubility (Solubility; in N,N-dimethyl formamide (DMF)): Soluble
Solubility (Solubility; in acetone): Soluble
Solubility (Solubility; in acetonitrile): Sparingly soluble
Solubility (Solubility; in carbon tetrachloride): Soluble
Solubility (Solubility; in chloroform): Soluble
Solubility (Solubility; in cyclohexane): Insoluble
Solubility (Solubility; in dimethyl sulfoxide (DMSO)): Soluble
Solubility (Solubility; in ethanol): not soluble; also recorded: Sparingly soluble
Solubility (Solubility; in ethyl acetate): Soluble
Solubility (Solubility; in glacial acetic acid): Soluble
Solubility (Solubility; in hexane): Insoluble
Solubility (Solubility; in methanol): not soluble; also recorded: Sparingly soluble
Solubility (Solubility; in toluene): Soluble
Solubility (Solubility; in water): Insoluble
MIC [4]: not active
MIC (Plebsiella pneumoniae): 100 µg/mL (≈ 121 µM)
